Assay [1] concerns the target GmhA of E. coli (Escherichia coli, UniProt P63224). Kind of assay: Inhibition of the enzymatic activity of GmhA (luminescent assay). The class given is biochemical. The procedure:
Inhibition of the Enzymatic Activity of GmhA (Luminescent Assay):
The assay buffer “AB” contained 50 mM Hepes pH7.5, 1 mM MnCl2, 25 mM KCl, 0.012% Triton-X100, 1 mM dithiothreitol (DTT) and 0.1 μM Myelin basic protein (MBP). The following components were added in a white polystyrene Costar plate up to a final volume of 30 μL: 10 μL inhibitor dissolved in DMSO/water 50/50, and 20 μL GmhA of E. coli in AB. After 30 min of pre-incubation at room temperature, 30 μL of Substrates mix in AB were added in each well to a final volume of 60 μL. This reaction mixture was then composed of 2 nM GmhA, 3 μM sedoheptulose-7-phosphate (Sigma), 3 μM ATP (Sigma) and 50 nM HldE of E. coli in assay buffer. After 30 minutes of incubation at room temperature, 100 μL of the revelation mix were added to a final volume of 160 μL, including the following constituents at the respective final concentrations: 10000 light units/mL luciferase (Sigma), 20 μM D-luciferin (Sigma), 100 μM N-acetylcysteamine (Aldrich). Luminescence intensity was immediately measured on Luminoskan (Thermofisher) and converted into inhibition percentages. For IC50 determinations, the inhibitor was tested at 6 to 10 different concentrations, and the related inhibitions were fitted to a classical Langmuir equilibrium model using XLFIT (IDBS).

Assay [2] has as its system E. coli C7 (018:K1:H7) LPS heptosylation. Kind of assay: Inhibition of E. coli C7 (018:K1:H7) LPS biosynthesis (LPS gel electrophoresis, Re-LPS band). The class given is cell-based. The conditions noted are these: read-out: EC50 of E. coli C7 LPS heptosylation inhibition. The procedure:
Inhibition of E. coli C7 (018:K1:H7) LPS Biosynthesis:
The inner core contains several heptose residues. An inhibitor of the LPS heptosylation pathway should therefore reduce dramatically the size of LPS from full-length to the so-called ‘Re-LPS’ limited to lipid A branched with 2 Kdo residues.
The effect of heptosylation inhibitors on E. coli LPS was assessed as described below. The compounds to be tested were prepared in deionised water/DMSO (50/50) solutions and added (25 μL) in sterile culture microtubes. The strain used in this study was E. coli C7 (018:K1:H7). The bacteria were isolated on tryptic soy agar (TSA) overnight. Isolated colonies were cultured in 10 mL of Luria-Bertani medium (LB) at 37° C. up to an optical density (OD) of typically 0.15. These exponentially growing bacteria were finally diluted to 5e5 cfu/mL and added in each well (225 μL) for incubation with the compounds at 37° C. for approximately 5 hours, up to an optical density of ≈0.2-0.4. Some test compounds e.g. phospho-sugars required Glucose-6-Phosphate (G6P, from Sigma) to be added in the culture medium in order to activate their active transport into the bacterial cytosol via the phospho-sugar transporter UhpT. This was achieved by adding in the culture tube 2.5 μL of a 10 mM water solution of G6P (100 μM final concentration).
Bacterial cultures were normalized via OD determination, pelleted and washed with 1 mL Phosphate-Buffer-Saline (PBS). The pellets were then denatured for 10 min at 95-100° C. in 50 μL of Sodium dodecyl sulphate 0.2% (SDS), beta-mercaptoethanol 1%, Glycerol 36%, Tris pH 7.4 30 mM and bromophenol blue 0.001%. Samples were cooled down to room temperature, supplemented with 1.5 μl of proteinase K at 20 mg/mL, incubated for 1 hour at 55° C. and centrifuged for […] at 13,000 rpm at 25° C. The resulting supernatant, containing LPS, was finally analysed by SDS-PAGE electrophoresis.
LPS SDS-PAGE Electrophoresis:
Polyacrylamide gels (16%/4% acrylamide for separation and concentration respectively) were prepared, loaded with 8 μL of LPS extracts and migrated.
Gels were incubated overnight in 5% acetic acid/40% ethanol/deionised water, treated by 1% periodic acid/5% acetic acid for 15 min, washed 4 times for 10 min in deionised water and finally incubated for 18 min in the dark in a silver nitrate solution composed of 56 mL NaOH 0.1N, 4 mL ammoniac 33%, 45 mL AgNO3 5% (Tsai and Frasch) and 195 mL deionised water. Gels were then washed extensively in deionised water for 30 min and incubated for 10-15 min (up to LPS bands apparition) in the revelation mix composed of 300 mL deionised water, 300 μL formaldehyde 36.5% (Fluka) and 100 μL citric acid 2.3M. The revelation was stopped by incubating the gels in acetic acid 10% for 5 min. Gels were finally washed in deionised water, numerized with a Samsung PL51 camera and analysed by ImageJ software. The percentage of inhibition of LPS heptosylation was defined as the relative area of the Re-LPS band compared to the cumulated areas of Re-LPS and Core-LPS bands.

Assay [3] deals with E. coli C7 (O18:K1:H7). Kind of assay: Combination with antibiotics on E. coli C7 (MIC of the antibiotics). To be noted: in the presence of 100 μM G6P; for MIC of the antibiotic alone: without test compound. It is filed as cell-based. The procedure:
Combination with Antibiotics on E. coli C7 (018:K1:H7):
The compound to be tested was diluted in 50 mM HEPES buffer pH 7.4 from 10 mM stock solution. 5 μL of compound dilution or buffer were distributed in a sterile clear round bottom 96-well polystyrene microplate (Corning). 5 μL of serial 2-fold dilutions of reference antibiotics (Erythromycin (Fluka), Rifampicin (Fluka), or Synercid® (Monarch Pharmaceuticals)) in DMSO were added. An exponentially growing preculture of E. coli C7 (O18:K1:H7) in LB was diluted to 1e4 cfu/mL and supplemented with 100 μM G6P, and 90 μL of this suspension were added to the microplates. After overnight incubation at 37° C., the minimal inhibitory concentration (MIC) of the antibiotics were determined for each test compound concentration, as the lowest antibiotic concentration for which no bacterial pellet is visible without magnification.

Setting [4] is: test compound at concentrations <1 mM.

Read-outs that look alike come from different tables or passages of the source.

Consider seven molecules from US9975911B2, “Antibacterial compounds and biological applications thereof” (LABORATOIRE BIODIM, priority 2012, dated 2018).

What is called IC50 is the concentration that inhibits the measured activity by half. A word on the EC50: it is the concentration giving half of the maximal effect.

Sequence of GmhA of E. coli (P63224 whole entry): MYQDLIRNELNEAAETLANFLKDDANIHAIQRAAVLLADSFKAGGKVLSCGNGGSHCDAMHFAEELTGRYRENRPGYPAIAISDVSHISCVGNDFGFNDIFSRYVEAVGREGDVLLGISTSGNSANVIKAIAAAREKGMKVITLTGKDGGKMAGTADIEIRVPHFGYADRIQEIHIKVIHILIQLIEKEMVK

For `O=CN(O)C(CO)[C@H](O)[C@H](O)[C@H](O)CCP(=O)(O)O` (single isomer, unassigned) [Example 8], the IC50 in assay [1] (read-out: IC50 GmhA E. coli) was 0.027 µM. For the same molecule, the EC50 in assay [2] came to 180 µM.

`O=CN(O)C[C@H](O)[C@H](O)[C@H](O)CC(F)P(=O)(O)O` (stereo partly drawn) [Example 9, [1-Fluoro-6-(formyl-hydroxy-amino)-(3R,4R,5S)-3,4,5-trihydroxy-hexyl]-phosphonic acid] returned an IC50 in assay [1] (IC50 GmhA E. coli) of 0.015 µM. The EC50 in assay [2] (Escherichia coli) amounted to 76 µM.

`O=CN(O)C(CO)[C@H](O)[C@H](O)[C@H](O)CCP(=O)(O)O` (single isomer, unassigned) [Example 7]: the IC50 in assay [1] (read-out: IC50 GmhA E. coli) came out at 0.046 µM. For the same molecule, the EC50 in assay [2] (Escherichia coli) is 220 µM.

`CO[C@H]1/C=C/O[C@@]2(C)Oc3c(C)c(O)c4c(O)c(c(/C=N/N5CCN(C)CC5)c(O)c4c3C2=O)NC(=O)/C(C)=C\C=C\[C@H](C)[C@H](O)[C@@H](C)[C@@H](O)[C@@H](C)[C@H](OC(C)=O)[C@@H]1C` [rifampicin, Rifampicin, reference compound]: in assay [3], the “MIC of the antibiotic alone” value turned out to be 4 µg/mL.

The molecule `O=CN(O)C[C@H](O)[C@H](O)[C@H](O)CCP(=O)(O)O` [Example 3, [6-(Formyl-hydroxy-amino)-(3R,4R,5S)-3,4,5-trihydroxy-hexyl]-phosphonic acid] showed an IC50 in assay [1] (IC50 GmhA E. coli) of 0.003 µM. Further, the EC50 in assay [2] (Escherichia coli) was 18 µM.

For the molecule `CC[C@H]1OC(=O)[C@H](C)[C@@H](O[C@H]2C[C@@](C)(OC)[C@@H](O)[C@H](C)O2)[C@H](C)[C@@H](O[C@@H]2O[C@H](C)C[C@H](N(C)C)[C@H]2O)[C@](C)(O)C[C@@H](C)C(=O)[C@H](C)[C@@H](O)[C@]1(C)O` [erythromycin, Erythromycin, reference compound], the “MIC of the antibiotic alone” value in assay [3] is 32 µg/mL.

`O=CN(O)C[C@H](O)[C@H](O)[C@H](O)COP(=O)([O-])O.[Na+]` [Example 2, N-hydroxy-N-formylamino-1-deoxy-D-ribitol-5-phosphate]: in assay [1] (read-out: IC50 GmhA E. coli), the IC50 is 0.0024 µM. Also, the EC50 in assay [2] (Escherichia coli) was found to be 18 µM. In assay [3] (setting [4]), the “MIC of Synercid in combination with the compound” value is 8 µg/mL, the “MIC of erythromycin in combination with the compound” value is 1 µg/mL, the “MIC of rifampicin in combination with the compound” value turned out to be 0.25 µg/mL and the “potentiation of Synercid” value is on record as 16 fold. Moreover, in assay [3] (setting [4]), the potentiation of erythromycin came to 32 fold and the potentiation of rifampicin is 16 fold.
